Test results published in patent US20220071939A1, “COMPOUNDS AND METHODS FOR THE TREATMENT OF POLYCYSTIC KIDNEY DISEASE (PKD)” (Resilio Therapeutics, LLC, priority 2018, published 2022).
“Also recorded” adds a separate entry of the source.

Assays:
[1] = tested on: human renal mixed epithelial cells in 2D cultures from Autosomal Dominant Polycystic Kidney Disease (ADPKD) donors; experiment: 2D cellular toxicity assay (viability by ATP release, Cell TiterGlo kit); type: cell-based
Description: (§1) FIG. 1 is a plot of cell viability as a function of difluoromethyl omithine (DFMO) concentration, showing the viability of primary ADPKD cells in 2D culture as measured by ATP release using Cell TiterGlo kit. Studies were performed on DFMO, the metabolic product of DFMO-prodrugs, in primary cell cultures of 2 dimensional (2D) cellular toxicity assays, 3 dimensional (3D) cyst formation assays and 3D tubulogenesis assays. DFMO was less than 10% toxic (90% viable) to human renal mixed epithelial cells in 2D cultures from Autosomal Dominant Polycystic Kidney Disease (ADPKD) donors up to 10 mM DFMO concentration as measured using a Cell Titer Go kit (FIG. 1). In the 3D cyst cultures, a population of mixed cells from a surgically resected cyst from a donor ADPKD kidney is combined with human kidney fibroblasts to grow cysts in a proprietary media (Discovery BioMed, Inc) that contains conditioned media from kidney fibroblasts and a Biogel matrix (DiscoveryBioMed). Using light microscopy to count cysts, the number of cysts formed in 3D cultures decreased in a dose-dependent fashion to 50% of controls at 10 mM DFMO (FIG. 2).

[2] = tested on: cysts formed from ADPKD donor cells in 3D cultures; experiment: 3D cyst formation assay (cyst number and cyst size by light microscopy); type: cell-based, human; details: 3D culture
Description: as §1, with “Studies” for “FIG. 1 is a plot of cell viability as a function of difluoromethyl omithine (DFMO) concentration, showing the viability of primary ADPKD cells in 2D culture as measured by ATP release using Cell TiterGlo kit. Studies”, “2). Photomicrographs of cysts formed from ADPKD donor cells in 3D cultures show a time dependent change in cyst size.” for “2).”

[3] = tested on: normal human kidney (NHK) cells in 3D cultures; experiment: 3D tubulogenesis assay; type: cell-based; details: 10 mM DFMO
Description: As a further proof of the potential utility of DFMO/DFMO-prodrugs in ADPKD patients, we also performed a tubulogenesis assay with normal human kidney cells in 3D cultures. Vehicle treated normal human kidney (NHK) cells form tubules by Day 3 in 3D cultures (FIG. 5) as do 10 mM DFMO-treated NHK cells, which also form tubules under the same conditions (FIG. 6).

[4] = 2D culture, up to 10 mM DFMO, Cell Titer Glo (ATP release), FIG. 1

tubule formation ([3]; Day 3, FIG. 6): form tubules
tubule numbers, maturation and elongation versus vehicle ([3]; visual comparison over time): appear similar
Substance: difluoromethylornithine [DFMO]
cell viability [1, 4]: 90%
toxicity to ADPKD cells [1, 4]: less than 10%
cell killing in 2D cultures ([1]; ADPKD cells, 2D cultures): not killed
cyst size over time ([2]; 10 mM DFMO, Day 0 to Day 4, FIG. 4): decreases with time; also recorded: slight increase on Day 1 followed by a steady decrease in cyst size by Day 4 when the cyst is smaller than on Day 0
number of cysts formed, relative to controls ([2]; 10 mM DFMO, FIG. 2): 50 % of controls
number of cysts versus DFMO concentration ([2]; FIG. 2): decrease in a dose-dependent manner
